Laboratory results as given in patent publication US20060057153A1, “Method and composition for the inhibition of mitosis” (priority 2002, published 2006).

Assays:
S. pombe bir1-46 (Sp287) = test: Growth of bir1-46 on YES plates with thiabendazole; type: cell-based; settings: 10 μg/ml TBZ, permissive temperature (28° C.), 3 days
Procedure: Briefly, to identify the phenotypes of the temperature sensitive allele, bir1-46, Wild-type and bir1-46 (Sp287) were streaked out on YES plates or 10 μg/ml of thiabendazole (TBZ), followed by incubation at either 28° C. or 32° C. for 3 days. Wild-type, bir1-46, and a rad3Δ were grown in YES medium to mid log phase (O.D.595=0.5-0.6) and then plated on YES plates followed by UV irradiation. Plates were cultured at 28° C. with a foil cover for 1 day and without a foil cover for subsequent 4 days. Colony numbers were calculated and survival rates were determined based on control plates, which were not irradiated. bir1-46 was transformed with vector alone (pUR19), pUR19-bir1^+, pUR19-Bsh3^+, or pUR19-pic1^+. Transformants were streaked out on YES plates followed by incubation at either 28° C. or 34° C. for 3 days. To conduct the high-copy suppressor screen, Sp287 (bir-46) was transformed with either a cDNA or genomic DNA library. Transformants were incubated at 28° C. for 20 hr followed by further incubation at 34° C. for five days.
Given that bir1^+ is required for chromosome segregation and cytokinesis, it is plausible that bir1^+ is also involved in mitotic spindle integrity.

HeLa cells = test: siRNA depletion in thymidine-synchronized HeLa cells, immunofluorescence staining of metaphase cells, with or without Vinblastine; type: cell-based, human; settings: Buffer-transfected cells
Procedure: To further analyze the mitotic defects apparent in Bsh3-depleted cells, siRNA depletion was performed using thymidine-synchronized cells. Briefly, HeLa cells were blocked by thymidine 40 hr after siRNA transfection. After 20 hr of thymidine treatment, cells were washed and cultured in thymidine free media for 14 hr, followed by immunofluorescence staining analysis using the anti-centromere antibody, ANA-C (Sigma). Chromosomes and mitotic spindles were localized by Hoechst and anti-α-tubulin staining, respectively. […] To distinguish these two possibilities, siRNA depletion and video-microscopy were performed using a HeLa cell line expressing the histone H2B-GFP fusion protein. While the wild-type cells were able to congress and segregate their chromosomes in 45-60 min, siRNA treated cells (30%) took more than 2 hr for the same process due to the fact that some chromosomes were delayed in alignment at the metaphase plate. […] However, only 0.34% of buffer-treated cells remained in metaphase (Table 1).
To confirm this interpretation, it was analyzed whether human Bsh3 depleted cells were more sensitive to Vinblastine (VBL), a microtubule-disrupting drug. It has been shown that a low concentration of VBL (nM) alters microtubule dynamics without depolymerizing microtubules. As a result, it affects chromosome movement during metaphase and delays chromosome congression. In addition Vinblastine disrupts kinetochore tension without affecting spindle-kinetochore attachment.
siRNA depletion using thymidine-synchronized cells, which were released into culture media with different concentrations of VBL for 14 hr, was followed by immunofluorescence staining as described in the previous section.

[1] = test system: HL-60, a promylocytic cell line; test: Bsh3 expression in HL-60 cells after treatment; type: cell-based; settings: HL60 cells treated with the agent
Description: In addition to being a marker of tumor aggressiveness and treatment potential, Bsh3 expression can be used as a measurement of the effectiveness of anti-tumor therapy. In the Examples, it is shown that HL-60, a promylocytic cell line, had high levels of Bsh3 expression. […] The reduction in expression correlated with the degree of differentiation, the greater the differentiation, the lower the level of Bsh3 expression. Accordingly, Bsh3 expression can be used to measure the effectiveness of anti-tumor treatment: if Bsh3 expression decreases during treatment, the treatment protocol is effective and can be continued, whereas if Bsh3 expression remains unaltered, a different therapeutic regime or protocol needs to be performed.

c1ccc2[nH]c(-c3cscn3)nc2c1 [TBZ, Thiabendazole]
growth of bir1-46 (S. pombe bir1-46 (Sp287)): failed to grow

CC[C@]1(O)C[C@@H]2CN(CCc3c([nH]c4ccccc34)[C@@](C(=O)OC)(c3cc4c(cc3OC)N(C)[C@H]3[C@@](O)(C(=O)OC)[C@H](OC(C)=O)[C@]5(CC)C=CCN6CC[C@]43[C@@H]65)C2)C1 [VBL, Vinblastine]
% of cells in metaphase (HeLa cells; VBL 0.1 nM for 14 hr): 1.5%
% of cells in metaphase (HeLa cells; VBL 0.5 nM for 14 hr): 1.7%
% of cells in metaphase (HeLa cells; VBL 1 nM for 14 hr): 13.6%

CC1=C(/C=C/C(C)=C/C=C/C(C)=C/C(=O)O)C(C)(C)CCC1 [retenoic acid]
Bsh3 expression [1]: reduction and elimination of Bsh3 expression
